Calls of active or inactive are those of the source. Cut-off read from the data, not from the text of the source, for most assays here: actives have a measured EC50 and inactives only a lower limit.
Assays:
[1] = molecular target: Large T antigen (Simian virus 40, UniProt P03070); format: functional, Betapolyomavirus macacae;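 note: Confirmatory-stage PubChem screen for compounds that inhibit SV40 T antigen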
[2] = molecular target: Induced myeloid leukemia cell differentiation protein Mcl-1 (Homo sapiens, UniProt Q07820); format: functional
Sequence of Induced myeloid leukemia cell differentiation protein Mcl-1 (Q07820 whole entry): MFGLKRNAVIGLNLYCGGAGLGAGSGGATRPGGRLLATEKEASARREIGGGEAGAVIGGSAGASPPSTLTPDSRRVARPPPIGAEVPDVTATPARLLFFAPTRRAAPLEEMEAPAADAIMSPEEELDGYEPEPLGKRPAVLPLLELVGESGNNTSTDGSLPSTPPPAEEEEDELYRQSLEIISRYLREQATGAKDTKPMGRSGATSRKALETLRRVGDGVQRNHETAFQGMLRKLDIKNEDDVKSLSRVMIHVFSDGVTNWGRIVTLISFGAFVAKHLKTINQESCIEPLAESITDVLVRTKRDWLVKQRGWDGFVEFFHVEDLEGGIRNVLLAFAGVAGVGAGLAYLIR

[3] = molecular target: T1, Polyadenylate-binding protein 1 (Homo sapiens, UniProt P11940); test: MLLE binding blockers, Cy5 peptide tracer – biochemical, fluorescence polarization, Cy5-PAM2 peptide, secondary, miRNA deadenylation inhibitor project, dose response (AID 602260); format: functional; conditions: read-out: IC50_Mean
T1 sequence (P11940 whole entry, the tested form may be a part): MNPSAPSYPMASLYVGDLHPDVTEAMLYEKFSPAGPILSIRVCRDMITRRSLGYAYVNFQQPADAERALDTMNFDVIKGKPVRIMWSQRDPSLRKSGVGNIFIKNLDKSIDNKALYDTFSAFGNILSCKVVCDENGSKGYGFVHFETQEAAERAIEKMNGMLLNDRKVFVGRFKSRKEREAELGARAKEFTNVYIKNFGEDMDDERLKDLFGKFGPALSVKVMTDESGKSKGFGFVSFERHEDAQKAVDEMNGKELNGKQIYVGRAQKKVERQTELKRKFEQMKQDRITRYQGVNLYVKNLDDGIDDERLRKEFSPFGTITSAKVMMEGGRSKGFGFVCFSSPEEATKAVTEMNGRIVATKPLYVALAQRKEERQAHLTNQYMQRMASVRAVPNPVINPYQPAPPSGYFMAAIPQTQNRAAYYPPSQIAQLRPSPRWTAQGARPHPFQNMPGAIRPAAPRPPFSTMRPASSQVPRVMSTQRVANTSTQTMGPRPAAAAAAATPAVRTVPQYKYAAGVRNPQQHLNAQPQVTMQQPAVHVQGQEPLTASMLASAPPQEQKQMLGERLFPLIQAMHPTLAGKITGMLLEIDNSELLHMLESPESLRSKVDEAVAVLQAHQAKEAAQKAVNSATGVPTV

[4] = molecular target: T1, Polyadenylate-binding protein 1; test: MLLE domain peptide-binding blockers, IC50 – biochemical, fluorescence polarization, FITC-PAM2 peptide, dose response (AID 602259); format: functional; conditions: read-out: IC50_Mean
[5] = molecular target: T2, Protein skinhead-1 (Caenorhabditis elegans, UniProt P34707); format: functional
T2 sequence (P34707 whole entry): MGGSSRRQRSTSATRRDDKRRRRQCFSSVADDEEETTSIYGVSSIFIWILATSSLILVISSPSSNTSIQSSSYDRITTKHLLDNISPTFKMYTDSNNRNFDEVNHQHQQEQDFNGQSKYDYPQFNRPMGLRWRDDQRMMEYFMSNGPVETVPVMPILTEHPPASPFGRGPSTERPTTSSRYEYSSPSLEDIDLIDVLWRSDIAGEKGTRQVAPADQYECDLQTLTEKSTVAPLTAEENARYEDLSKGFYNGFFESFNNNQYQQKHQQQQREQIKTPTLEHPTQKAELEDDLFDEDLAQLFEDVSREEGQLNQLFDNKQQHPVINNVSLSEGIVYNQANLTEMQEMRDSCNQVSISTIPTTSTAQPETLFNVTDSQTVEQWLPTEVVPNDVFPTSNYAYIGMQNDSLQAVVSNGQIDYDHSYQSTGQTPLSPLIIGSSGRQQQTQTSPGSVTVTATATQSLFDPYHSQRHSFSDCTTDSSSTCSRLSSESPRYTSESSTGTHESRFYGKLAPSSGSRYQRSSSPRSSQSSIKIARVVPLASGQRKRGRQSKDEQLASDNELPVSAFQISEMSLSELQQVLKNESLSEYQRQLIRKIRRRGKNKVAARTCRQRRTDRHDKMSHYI

[6] = cells; format: functional, cell-based
[7] = cells; format: functional, cell-based; remark: listed apart in the source
[8] = molecular target: T3, Rac GTPase-activating protein 1 (Homo sapiens, UniProt Q9H0H5); test: blockers of MgcRacGAP-driven Rac1 GTP hydrolysis – biochemical, ADP Hunter fluorescence, primary and confirmatory, confirmation (AID 624330); format: functional
T3 sequence (Q9H0H5 whole entry): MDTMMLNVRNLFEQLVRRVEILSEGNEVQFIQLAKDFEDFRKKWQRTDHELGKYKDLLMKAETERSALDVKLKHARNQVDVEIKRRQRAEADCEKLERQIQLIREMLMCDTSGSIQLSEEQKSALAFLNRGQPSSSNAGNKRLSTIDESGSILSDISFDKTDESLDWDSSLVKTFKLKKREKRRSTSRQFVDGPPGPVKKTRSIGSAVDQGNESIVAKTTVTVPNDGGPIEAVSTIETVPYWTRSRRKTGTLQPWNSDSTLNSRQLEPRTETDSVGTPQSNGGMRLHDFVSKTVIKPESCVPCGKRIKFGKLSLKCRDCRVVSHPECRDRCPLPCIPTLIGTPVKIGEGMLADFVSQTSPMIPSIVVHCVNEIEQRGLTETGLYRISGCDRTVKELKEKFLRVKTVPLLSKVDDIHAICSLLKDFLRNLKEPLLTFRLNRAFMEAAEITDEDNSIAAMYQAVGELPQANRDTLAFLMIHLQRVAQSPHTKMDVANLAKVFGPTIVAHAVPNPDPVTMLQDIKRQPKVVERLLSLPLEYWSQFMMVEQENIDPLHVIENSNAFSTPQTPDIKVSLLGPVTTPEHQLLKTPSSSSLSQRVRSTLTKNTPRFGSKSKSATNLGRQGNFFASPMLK

[9] = molecular target: T4, RNA-binding protein pos-1 (Caenorhabditis elegans, UniProt G5EF15); test: disruptors of C. elegans POS-1 RNA interaction – biochemical, fluorescence polarization, dose response (AID 1964);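 note: purified POS-1 fused to maltose binding protein made in E. coli; potency of compounds blocking POS-1 binding to fluorescent RNA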
T4 sequence (G5EF15 whole entry): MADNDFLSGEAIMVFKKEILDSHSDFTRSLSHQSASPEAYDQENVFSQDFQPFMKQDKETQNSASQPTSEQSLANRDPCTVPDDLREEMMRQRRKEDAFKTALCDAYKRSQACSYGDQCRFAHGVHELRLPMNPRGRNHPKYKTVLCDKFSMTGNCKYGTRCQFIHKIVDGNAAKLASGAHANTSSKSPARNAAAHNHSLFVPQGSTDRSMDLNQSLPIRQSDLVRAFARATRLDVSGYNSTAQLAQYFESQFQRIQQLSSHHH

[10] = molecular target: T5, Zinc finger protein mex-5 (Caenorhabditis elegans, UniProt Q9XUB2); test: potency of MEX-5 RNA-binding blockers – biochemical, C. elegans, fluorescence polarization, dose response (AID 1960)
T5 sequence (Q9XUB2 whole entry): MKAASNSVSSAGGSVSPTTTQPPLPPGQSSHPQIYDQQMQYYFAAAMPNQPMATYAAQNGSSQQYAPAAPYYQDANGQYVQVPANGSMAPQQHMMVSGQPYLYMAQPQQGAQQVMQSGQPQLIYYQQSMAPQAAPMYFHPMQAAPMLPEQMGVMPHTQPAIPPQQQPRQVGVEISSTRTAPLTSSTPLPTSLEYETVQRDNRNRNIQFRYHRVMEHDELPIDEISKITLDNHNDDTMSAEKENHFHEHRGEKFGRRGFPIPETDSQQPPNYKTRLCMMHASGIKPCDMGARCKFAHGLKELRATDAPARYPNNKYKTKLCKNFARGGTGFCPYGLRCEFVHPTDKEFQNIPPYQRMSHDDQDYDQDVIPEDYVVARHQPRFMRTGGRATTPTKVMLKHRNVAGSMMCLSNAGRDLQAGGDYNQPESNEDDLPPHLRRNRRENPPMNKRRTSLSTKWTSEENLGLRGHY

[11] = molecular target: T6, Replicative DNA helicase DnaB (Mycobacterium tuberculosis, UniProt P9WMR3); test: DnaB intein splicing inhibitors, dose response, biochemical, cell-free fluorescence (AID 449749); format: functional
T6 sequence (P9WMR3 whole entry): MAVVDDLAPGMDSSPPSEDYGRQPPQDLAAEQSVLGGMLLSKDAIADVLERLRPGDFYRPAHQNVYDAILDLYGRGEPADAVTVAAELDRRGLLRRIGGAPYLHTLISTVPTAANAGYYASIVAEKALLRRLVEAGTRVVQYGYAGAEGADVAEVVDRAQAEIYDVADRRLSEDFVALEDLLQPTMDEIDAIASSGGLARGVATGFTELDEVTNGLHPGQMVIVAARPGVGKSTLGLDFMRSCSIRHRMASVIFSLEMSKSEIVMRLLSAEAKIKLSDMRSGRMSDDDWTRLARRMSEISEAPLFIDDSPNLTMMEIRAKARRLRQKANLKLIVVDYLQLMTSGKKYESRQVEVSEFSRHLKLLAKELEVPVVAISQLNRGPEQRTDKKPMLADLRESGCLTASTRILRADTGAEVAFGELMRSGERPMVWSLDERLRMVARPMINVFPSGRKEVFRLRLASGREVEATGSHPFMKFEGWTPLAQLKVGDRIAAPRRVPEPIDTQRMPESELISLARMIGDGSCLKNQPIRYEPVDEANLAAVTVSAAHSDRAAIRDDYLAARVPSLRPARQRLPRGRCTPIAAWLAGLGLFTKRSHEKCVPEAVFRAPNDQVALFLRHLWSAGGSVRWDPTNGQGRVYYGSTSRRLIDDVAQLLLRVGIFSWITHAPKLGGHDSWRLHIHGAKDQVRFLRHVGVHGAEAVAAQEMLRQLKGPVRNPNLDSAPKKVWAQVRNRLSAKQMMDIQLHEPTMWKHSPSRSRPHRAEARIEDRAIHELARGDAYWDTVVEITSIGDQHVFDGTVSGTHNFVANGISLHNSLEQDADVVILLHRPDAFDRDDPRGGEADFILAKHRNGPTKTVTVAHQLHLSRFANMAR

[12] = molecular target: T7, Protein RecA (Mycobacterium tuberculosis, UniProt P9WHJ3); test: Fluorescence Cell-Free Homogeneous Dose Retest to Identify Inhibitors of RecA-Intein Splicing Activity. [Related pubchem assays (depositor defined):AID2097, AID2223, AID489010, AID492950]; format: functional
T7 sequence (P9WHJ3 whole entry): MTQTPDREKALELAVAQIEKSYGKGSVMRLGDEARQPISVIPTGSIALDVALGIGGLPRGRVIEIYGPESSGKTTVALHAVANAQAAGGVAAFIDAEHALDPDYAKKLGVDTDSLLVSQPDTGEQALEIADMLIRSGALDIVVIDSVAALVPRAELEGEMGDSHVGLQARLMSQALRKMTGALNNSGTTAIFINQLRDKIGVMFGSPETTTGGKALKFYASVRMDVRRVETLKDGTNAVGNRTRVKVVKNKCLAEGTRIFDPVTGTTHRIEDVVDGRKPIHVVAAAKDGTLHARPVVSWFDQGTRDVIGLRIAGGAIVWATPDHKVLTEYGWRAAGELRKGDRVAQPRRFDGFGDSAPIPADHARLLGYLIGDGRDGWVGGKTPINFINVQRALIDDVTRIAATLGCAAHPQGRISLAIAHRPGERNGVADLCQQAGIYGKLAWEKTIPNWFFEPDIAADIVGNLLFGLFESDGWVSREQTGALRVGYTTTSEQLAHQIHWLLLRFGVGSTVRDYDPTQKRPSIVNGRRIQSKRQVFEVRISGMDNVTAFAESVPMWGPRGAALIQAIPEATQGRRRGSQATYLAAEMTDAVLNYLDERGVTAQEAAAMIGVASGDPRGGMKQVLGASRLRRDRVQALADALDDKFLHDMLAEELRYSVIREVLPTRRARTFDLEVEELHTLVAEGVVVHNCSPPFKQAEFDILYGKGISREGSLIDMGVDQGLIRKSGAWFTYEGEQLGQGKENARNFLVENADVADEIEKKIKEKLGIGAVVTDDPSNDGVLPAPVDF

[13] = Luminescence Cell-Based Dose Confirmation HTS to Identify Activators of 5'UTR Stem-Loop Driven Alpha-Synuclein mRNA Translation in H4 Neuroglioblastoma Cells. [Related pubchem assays: 1829 (Project Summary), 1814 (Primary HTS)]; format: functional
[14] = Luminescence Cell-Based Dose Response HTS to Identify Activators of Luciferase Translation or Activity in H4 […] Cells. [Related pubchem assays: 1829 (Project Summary), 1814 (Primary HTS)]; format: functional
[15] = tested on: H4; test: Luminescence Cell-Based Dose Response HTS to Identify Activators of 5'UTR Stem-Loop Driven Prion Protein mRNA Translation in H4 Neuroglioblastoma Cells. [Related pubchem assays: 1829 (Project Summary), 1814 (Primary HTS)]; format: functional; conditions: Homo sapiens
[16] = NIH-3T3 fibroblast cytotoxicity, dose response, cytotoxicity control, cell-based, fluorescence, Alamar Blue, secondary assay (AID 2327); format: functional;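 note: NIH-3T3 mouse fibroblasts cultured with fluconazole at 8 µg/mL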
[17] = fluconazole-exposed Candida albicans growth modulators – fluorescence, retest, confirmation (AID 2467); format: functional, cell-based

Sequence of Large T antigen (P03070 whole entry): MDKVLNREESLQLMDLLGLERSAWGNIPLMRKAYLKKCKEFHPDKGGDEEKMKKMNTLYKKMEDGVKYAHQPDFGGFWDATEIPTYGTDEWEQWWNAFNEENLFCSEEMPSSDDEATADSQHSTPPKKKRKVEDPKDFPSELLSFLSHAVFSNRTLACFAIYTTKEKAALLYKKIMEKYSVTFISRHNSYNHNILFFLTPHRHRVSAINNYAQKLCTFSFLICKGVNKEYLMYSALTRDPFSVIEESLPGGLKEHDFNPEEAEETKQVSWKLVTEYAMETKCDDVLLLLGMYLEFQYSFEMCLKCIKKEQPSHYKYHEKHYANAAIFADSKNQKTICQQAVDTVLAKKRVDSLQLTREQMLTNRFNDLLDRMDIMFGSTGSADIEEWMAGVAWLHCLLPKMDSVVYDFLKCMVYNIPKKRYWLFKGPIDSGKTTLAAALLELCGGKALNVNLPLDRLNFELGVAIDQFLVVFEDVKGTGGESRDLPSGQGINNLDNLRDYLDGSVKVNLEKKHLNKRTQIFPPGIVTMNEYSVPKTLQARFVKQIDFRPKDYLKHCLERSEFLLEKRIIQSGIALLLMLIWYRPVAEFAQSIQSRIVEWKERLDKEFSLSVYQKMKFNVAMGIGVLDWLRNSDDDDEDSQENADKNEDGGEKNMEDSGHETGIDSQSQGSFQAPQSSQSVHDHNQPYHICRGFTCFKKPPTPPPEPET

O=C(N/N=C/c1ccc(O)c(O)c1)c1ccc(CSc2cccc3cccnc23)cc1
IC50 [1]: 5.43 µM (active) | IC50 [2]: 4.61 µM (active)

Cc1cc2cc(CNC(=O)Cc3ccc([N+](=O)[O-])cc3)ccc2n1C
IC50 [3]: > 66 µM (inactive) | IC50 [4]: > 66 µM (inactive) | IC50 [5]: > 100 µM (inactive)

CCN1CCN(c2ccc([N+](=O)[O-])cc2C=C2C(=O)NC(=O)NC2=O)CC1
EC50 [6]: > 350 µM (not active) | EC50 [7]: > 350 µM (not active)

CCN1C(=O)/C(=C/c2ccc3c(c2)CCN3CCCCl)C(=O)NC1=S
IC50 [2]: 3.4 µM (active)

C/C(=C\C(=O)OCC(=O)NCc1ccccc1)C(=O)OCC(=O)NCc1ccccc1
EC50 [6]: > 350 µM (not active) | EC50 [7]: > 350 µM (not active)

Cc1ccc(O)c(NC(=O)c2ccc3c(c2)C(=O)N(Cc2ccco2)C3=O)c1
EC50 [6]: > 350 µM (not active) | EC50 [7]: 52.2 µM (active)

O=C1NC(=O)C(=Cc2cccs2)C(=O)N1
IC50 [8]: 188 µM (active)

COc1cccc(N2CC(C(=O)Oc3ccc4ccccc4c3)CC2=O)c1 (stereo unspecified)
IC50 [8]: 16.1 µM (active)

CSCc1nc2sc(C(=O)Nc3nc(C)cs3)c(C)c2c(=O)[nH]1
IC50 [2]: 3.89 µM (active)

CCN(CC)C(=O)CSc1nnc2nnc3cc(Cl)ccc3n12
EC50 [9]: 23.2 µM (active) | EC50 [10]: 18.5 µM (active) | AC50 [11]: > 380 µM (inactive) | EC50 [12]: 0.499 µM (active) | IC50 [3]: > 66 µM (inactive) | IC50 [4]: 34.4 µM (inactive)

Cc1ccc(S(=O)(=O)Nc2nsc(N)n2)cc1
IC50 [8]: 82.8 µM (active)

CCN=c1ccc(Br)cc(C(=O)/C=C/c2ccc(Cl)cc2)c1O
IC50 [2]: 3.55 µM (active)

Cc1ccc2[nH]c(N3CCN(C)CC3)nc2c1
EC50 [13]: 3.62 µM (active) | EC50 [14]: 18.7 µM (active) | EC50 [6]: > 350 µM (not active) | EC50 [15]: 20 µM (active) | EC50 [7]: > 350 µM (not active)

Cc1cc(NC(=O)CN2CCN(C)CC2)no1
IC50 [8]: 157 µM (active)

Oc1ccc(CN2CCC(Cc3ccccc3)CC2)c2cccnc12
EC50 [16]: 22.3 µM (active) | EC50 [6]: 6.9 µM (active) | EC50 [17]: 1.99 µM (active) | EC50 [7]: > 350 µM (not active)

CCOC(=O)CN(C(=O)COc1nc(C)cc(C)c1C#N)c1cccc(Cl)c1
EC50 [6]: > 350 µM (not active) | EC50 [7]: > 350 µM (not active)

COc1ccccc1CNCC(=O)Nc1ccc(N(C)C)cc1
IC50 [8]: 32.1 µM (active)

Reference: ChEMBL document CHEMBL1201862, “PubChem BioAssay data set” (2004)
